Tests used:
[1] = target: T1, human H3 receptor (Homo sapiens, UniProt Q9Y5N1); assay: Human H3 radioligand binding ([3H]-N-alpha-methylhistamine, CHO cell membranes, SPA); conditions: Table B, binding constant as letter class
T1 construct: expressed in transfected cells
Method in brief: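 CHO cell membranes expressing human H3 (10 μg protein/well) incubated 4 h at room temperature, in the dark, with ~1 nM [3H]-N-alpha-methylhistamine, compounds (0.01 nM-30 μM) and SPA beads in 50 mM Tris HCl pH 7.4, 5 mM MgCl2, 0.1% BSA. Non-specific binding defined with 10 μM clobenpropit.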

[2] = target: T2, rat histamine H3 receptor (Rattus norvegicus, UniProt Q9QYN8); assay: Rat H3 radioligand binding ([3H]-N-alpha-methylhistamine, CHO-A3 cell membranes, SPA); conditions: Table B, binding constant as letter class; read-out: rat H3 Ki
T2 construct: encoding the entire 445-amino-acid rat histamine H3 receptor; expressed in transfected cells
T2 sequence (Q9QYN8 whole entry): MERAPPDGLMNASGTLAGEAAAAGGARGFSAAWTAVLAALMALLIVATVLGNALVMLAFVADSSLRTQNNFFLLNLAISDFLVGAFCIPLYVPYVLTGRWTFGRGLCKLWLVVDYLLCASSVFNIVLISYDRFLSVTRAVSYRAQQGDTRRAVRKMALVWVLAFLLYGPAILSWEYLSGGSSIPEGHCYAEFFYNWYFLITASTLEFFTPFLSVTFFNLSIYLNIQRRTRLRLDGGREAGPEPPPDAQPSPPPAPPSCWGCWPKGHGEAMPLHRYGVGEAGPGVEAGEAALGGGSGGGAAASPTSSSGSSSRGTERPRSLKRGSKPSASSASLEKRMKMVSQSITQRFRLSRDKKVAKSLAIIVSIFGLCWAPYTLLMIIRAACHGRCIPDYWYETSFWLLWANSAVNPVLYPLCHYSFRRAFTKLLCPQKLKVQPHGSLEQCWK
Method in brief: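 Membranes from CHO-A3 cells stably expressing rat H3 (10 μg protein) incubated 4 h at room temperature in 50 mM Tris-HCl pH 7.4, 5 mM MgCl2, 0.1% BSA with ~1 nM [3H]-N-alpha-methylhistamine and compound (0.01 nM-30 μM). Bound radioligand read by scintillation proximity; nonspecific binding with 10 μM clobenpropit.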

T1 sequence (Q9Y5N1 whole entry): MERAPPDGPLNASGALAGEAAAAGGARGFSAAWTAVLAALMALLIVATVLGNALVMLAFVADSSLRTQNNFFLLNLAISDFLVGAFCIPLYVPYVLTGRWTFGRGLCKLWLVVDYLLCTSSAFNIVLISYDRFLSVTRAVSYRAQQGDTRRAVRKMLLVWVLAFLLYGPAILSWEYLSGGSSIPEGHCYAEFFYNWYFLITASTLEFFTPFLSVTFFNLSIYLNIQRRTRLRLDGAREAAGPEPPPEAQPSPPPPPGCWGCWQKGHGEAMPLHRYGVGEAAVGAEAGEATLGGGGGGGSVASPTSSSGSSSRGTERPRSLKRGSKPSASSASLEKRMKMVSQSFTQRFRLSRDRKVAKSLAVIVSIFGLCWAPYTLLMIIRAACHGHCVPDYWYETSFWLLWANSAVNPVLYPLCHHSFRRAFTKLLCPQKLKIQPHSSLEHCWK

CC1=NNC(=O)CC1c1ccc(OC2CCN(C3CCC3)CC2)cc1 (stereo not drawn) [Example 110, 5-[4-(1-Cyclobutyl-piperidin-4-yloxy)-phenyl]-6-methyl-4,5-dihydro-2H-pyridazin-3-one]
Ki [1]: 0.0001 to 0.1 µM
Ki [2]: 0.0001 to 0.1 µM
melting point: 178 to 179 °C

O=C1CC(c2ccccn2)C(c2ccc(OC3CCN(C4CCC4)CC3)cc2)=NN1 (stereo not drawn) [Example 114, 6-[4-(1-Cyclobutyl-piperidin-4-yloxy)-phenyl]-5-pyridin-2-yl-4,5-dihydro-2H-pyridazin-3-one]
Ki [1]: 0.0001 to 0.1 µM
Ki [2]: 0.0001 to 0.1 µM
melting point: 199 °C (dec.)

O=c1cc(-c2ccccn2)c(-c2ccc(OC3CCN(C4CCC4)CC3)cc2)n[nH]1 [Example 115, 6-[4-(1-Cyclobutyl-piperidin-4-yloxy)-phenyl]-5-pyridin-2-yl-2H-pyridazin-3-one]
Ki [1]: 0.0001 to 0.1 µM
Ki [2]: 0.0001 to 0.1 µM
melting point: 203 °C (dec.)

C[C@@H]1CCCN1CCCOc1ccc(-c2ccc(=O)[nH]n2)cc1C#N [Example 129, 2-[3-((R)-2-Methyl-pyrrolidin-1-yl)-propoxy]-5-(6-oxo-1,6-dihydro-pyridazin-3-yl)-benzonitrile]
Ki [1]: 0.0001 to 0.1 µM
Ki [2]: 0.101 to 0.5 µM
melting point: > 200 °C (dec.)

N#Cc1cc(-c2ccc(=O)[nH]n2)ccc1OCCCN1CCCCC1 [Example 130, 2-[3-(piperidin-1-yl)-propoxy]-5-(6-oxo-1,6-dihydro-pyridazin-3-yl)-benzonitrile]
Ki [1]: 0.101 to 0.5 µM
Ki [2]: 0.101 to 0.5 µM
melting point: 207 to 209 °C

C[C@@H]1CCCN1CCCOc1ccc(-c2ccc(=O)n(CCO)n2)cc1 [Example 131, 2-(2-Hydroxy-ethyl)-6-{4-[3-((R)-2-methyl-pyrrolidin-1-yl)-propoxy]-phenyl}-2H-pyridazin-3-one]
Ki [1]: 0.0001 to 0.1 µM
Ki [2]: 0.0001 to 0.1 µM
melting point: 95 to 98 °C

C[C@H](COc1ccc(-c2ccc(=O)[nH]n2)cc1)CN1CCC[C@H]1C [Example 132]
Ki [1]: 0.0001 to 0.1 µM
Ki [2]: 0.0001 to 0.1 µM
melting point: 163 to 167 °C

O=c1[nH]nc(-c2ccc(OCCCN3CCCCC3)cc2)c2c1CCC2 [Example 133, 4-[4-(3-Piperidin-1-yl-propoxy)-phenyl]-2,5,6,7-tetrahydro-cyclopenta[d]pyridazin-1-one]
Ki [1]: 0.0001 to 0.1 µM
Ki [2]: 0.0001 to 0.1 µM
melting point: 134 °C (dec.)

O=c1ccc(-c2ccc(OCCCN3CCCCC3)cc2)n[nH]1 [Example 134, 6-[4-(3-Piperidin-1-yl-propoxy)-phenyl]-2H-pyridazin-3-one]
Ki [1]: 0.0001 to 0.1 µM
Ki [2]: 0.0001 to 0.1 µM
melting point: 186 °C (dec.)

COc1cc(-c2ccc(=O)[nH]n2)ccc1OCCCN1CCCCC1 [Example 135, 6-[3-Methoxy-4-(3-piperidin-1-yl-propoxy)-phenyl]-2H-pyridazin-3-one]
Ki [1]: 0.101 to 0.5 µM
Ki [2]: 0.101 to 0.5 µM
melting point: 175 °C (dec.)

COc1cc(-c2ccc(=O)[nH]n2)ccc1OCCCN1CCC[C@H]1C [Example 136, 6-{3-Methoxy-4-[3-((R)-2-methyl-pyrrolidin-1-yl)-propoxy]-phenyl}-2H-pyridazin-3-one]
Ki [1]: 0.0001 to 0.1 µM
Ki [2]: 0.101 to 0.5 µM
melting point: 148 °C (dec.)

Cc1cc(OCCCN2CCCCC2)ccc1-c1ccc(=O)[nH]n1 [Example 137, 6-[2-Methyl-4-(3-piperidin-1-yl-propoxy)-phenyl]-2H-pyridazin-3-one]
Ki [1]: 0.0001 to 0.1 µM
Ki [2]: 0.0001 to 0.1 µM
melting point: 114 °C (dec.)

CC(C)N1CCC(COc2ccc(-c3ccc(=O)[nH]n3)cn2)CC1 [Example 140, 6-[6-(1-Isopropyl-piperidin-4-ylmethoxy)-pyridin-3-yl]-2H-pyridazin-3-one]
Ki [1]: 0.101 to 0.5 µM
Ki [2]: 0.501 to 1 µM
melting point: 188 to 191 °C

O=c1ccc(-c2ccc(OC3CCN(C4CCC4)CC3)nc2)n[nH]1 [Example 141, 6-[6-(1-Cyclobutyl-piperidin-4-yloxy)-pyridin-3-yl]-2H-pyridazin-3-one]
Ki [1]: 0.0001 to 0.1 µM
Ki [2]: 0.0001 to 0.1 µM
melting point: 217 to 219 °C

CC(C)N1CCC(Oc2ccc(-c3ccc(=O)[nH]n3)cn2)CC1 [Example 142, 6-[6-(1-Isopropyl-piperidin-4-yloxy)-pyridin-3-yl]-2H-pyridazin-3-one]
Ki [1]: 0.0001 to 0.1 µM
Ki [2]: 0.101 to 0.5 µM
melting point: 195 to 197 °C

CC(C)n1nc(-c2ccc(OC3CCN(C4CCC4)CC3)nc2)ccc1=O [Example 145, 6-[6-(1-Cyclobutyl-piperidin-4-yloxy)-pyridin-3-yl]-2-isopropyl-2H-pyridazin-3-one]
Ki [1]: 0.0001 to 0.1 µM
Ki [2]: 0.0001 to 0.1 µM
melting point: 113 to 115 °C

C[C@@H]1CCCN1CCCOc1ccc(-c2ccc(=O)[nH]n2)cn1 [Example 146, 6-{6-[3-((R)-2-Methyl-pyrrolidin-1-yl)-propoxy]-pyridin-3-yl}-2H-pyridazin-3-one]
Ki [1]: 0.0001 to 0.1 µM
Ki [2]: 0.0001 to 0.1 µM
melting point: 178 to 181 °C

O=c1ccc(-c2ccc(OCCCN3CCCCC3)nc2)n[nH]1 [Example 147, 6-[6-(3-Piperidin-1-yl-propoxy)-pyridin-3-yl]-2H-pyridazin-3-one]
Ki [1]: 0.0001 to 0.1 µM
Ki [2]: 0.101 to 0.5 µM
melting point: 155 to 158 °C

O=C1CCC(c2ccc(OC3CCN(C4CCC4)CC3)cc2)=NN1 [Example 150, 6-[4-(1-Cyclobutyl-piperidin-4-yloxy)-phenyl]-4,5-dihydro-2H-pyridazin-3-one]
Ki [1]: 0.0001 to 0.1 µM
Ki [2]: 0.0001 to 0.1 µM
melting point: 196 to 198 °C

O=C1CCC(c2ccc(OC3CCN(C4CCC4)CC3)c(F)c2)=NN1 [Example 151, 6-[4-(1-Cyclobutyl-piperidin-4-yloxy)-3-fluoro-phenyl]-4,5-dihydro-2H-pyridazin-3-one]
Ki [1]: 0.0001 to 0.1 µM
Ki [2]: 0.0001 to 0.1 µM
melting point: 195 to 197 °C

CC1(C)CC(c2ccc(OC3CCN(C4CCC4)CC3)cc2)=NNC1=O [Example 152, 6-[4-(1-Cyclobutyl-piperidin-4-yloxy)-phenyl]-4,4-dimethyl-4,5-dihydro-2H-pyridazin-3-one]
Ki [1]: 0.0001 to 0.1 µM
Ki [2]: 0.0001 to 0.1 µM
melting point: 157 to 158 °C

CC1(C)CC(c2ccc(OC3CCN(C4CCC4)CC3)c(F)c2)=NNC1=O [Example 153, 6-[4-(1-Cyclobutyl-piperidin-4-yloxy)-3-fluoro-phenyl]-4,4-dimethyl-4,5-dihydro-2H-pyridazin-3-one]
Ki [1]: 0.0001 to 0.1 µM
Ki [2]: 0.0001 to 0.1 µM
melting point: 147 to 149 °C

O=c1ccc(-c2ccc(OC3CCN(C4CCCC4)CC3)cc2)n[nH]1 [Example 154, 6-[4-(1-Cyclopentyl-piperidin-4-yloxy)-phenyl]-2H-pyridazin-3-one]
Ki [1]: 0.0001 to 0.1 µM
Ki [2]: 0.0001 to 0.1 µM
melting point: 211 to 213 °C

O=c1ccc(-c2ccc(OC3CCN(C4CCC4)CC3)cc2)n[nH]1 [Example 155, 6-[4-(1-Cyclobutyl-piperidin-4-yloxy)-phenyl]-2H-pyridazin-3-one]
Ki [1]: 0.0001 to 0.1 µM
Ki [2]: 0.0001 to 0.1 µM
melting point: 215 to 220 °C

O=c1ccc(-c2ccc(OC3CCN(C4CCC4)CC3)c(F)c2)n[nH]1 [Example 156, 6-[4-(1-Cyclobutyl-piperidin-4-yloxy)-3-fluoro-phenyl]-2H-pyridazin-3-one]
Ki [1]: 0.0001 to 0.1 µM
Ki [2]: 0.0001 to 0.1 µM
melting point: 236 to 238 °C

O=C1CCC(c2ccc(O[C@@H]3CCN(C4CCCCC4)C3)cc2)=NN1 [Example 159, 6-[4-((R)-1-Cyclohexyl-pyrrolidin-3-yloxy)-phenyl]-4,5-dihydro-2H-pyridazin-3-one]
Ki [1]: > 1 µM
Ki [2]: > 1 µM
melting point: 184 to 186 °C

O=c1ccc(-c2ccc(O[C@@H]3CCN(C4CCCCC4)C3)cc2)n[nH]1 [Example 160, 6-[4-((R)-1-Cyclohexyl-pyrrolidin-3-yloxy)-phenyl]-2H-pyridazin-3-one]
Ki [1]: 0.101 to 0.5 µM
Ki [2]: 0.101 to 0.5 µM
melting point: 200 to 202 °C

O=C1CCC(c2ccc(OC3CCN(C4CCC4)CC3)cc2)=NN1C1CCC1 [Example 163, 2-Cyclobutyl-6-[4-(1-cyclobutyl-piperidin-4-yloxy)-phenyl]-4,5-dihydro-2H-pyridazin-3-one]
Ki [1]: 0.0001 to 0.1 µM
Ki [2]: 0.0001 to 0.1 µM
melting point: 120 to 123 °C

O=C1CCC(c2ccc(OC3CCN(C4CCCC4)CC3)cc2)=NN1C1CCC1 [Example 164, 2-Cyclobutyl-6-[4-(1-cyclopentyl-piperidin-4-yloxy)-phenyl]-4,5-dihydro-2H-pyridazin-3-one]
Ki [1]: 0.0001 to 0.1 µM
Ki [2]: 0.0001 to 0.1 µM
melting point: 100 to 104 °C

O=C1CCC(c2ccc(OC3CCNCC3)cc2)=NN1C1CCC1 [Example 165, 2-Cyclobutyl-6-[4-(piperidin-4-yloxy)-phenyl]-4,5-dihydro-2H-pyridazin-3-one]
Ki [1]: > 1 µM
Ki [2]: > 1 µM
melting point: 168 to 170 °C

O=C1CCC(c2ccc(OC3CCN(C4CCC4)CC3)cc2)=NN1CC(F)(F)F [Example 166, 6-[4-(1-Cyclobutyl-piperidin-4-yloxy)-phenyl]-2-(2,2,2-trifluoro-ethyl)-4,5-dihydro-2H-pyridazin-3-one]
Ki [1]: 0.0001 to 0.1 µM
Ki [2]: 0.0001 to 0.1 µM
melting point: 146 to 147 °C

O=C1CCC(c2ccc(OC3CCN(C4CCCC4)CC3)cc2)=NN1CC(F)(F)F [Example 167, 6-[4-(1-Cyclopentyl-piperidin-4-yloxy)-phenyl]-2-(2,2,2-trifluoro-ethyl)-4,5-dihydro-2H-pyridazin-3-one]
Ki [1]: 0.0001 to 0.1 µM
Ki [2]: 0.0001 to 0.1 µM
melting point: 225 to 227 °C

Reference: patent US8586588B2, “Aryl pyridazinone derivatives and their use as H3 receptor ligands” (Cephalon, Inc., priority 2006, dated 2013)
